The results in this text go back to PubChem BioAssay (NCI).

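Results reflect a 48-hour exposure of cells in 96-well plates to compound at five concentrations. Here, GI50 denotes the concentration required for 50% inhibition of growth. TGI: concentration producing complete growth inhibition.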

Holding throughout (assay): NCI-60 cell line screen, 48 h
For test [1], the system named is SNB-19 CNS.
Test [2] deals with U251 CNS.
The test system of test [3] is UO-31 renal.
Test [4] relates to A498 renal.
The subject of test [5] is MALME-3M melanoma.
Test [6] concerns OVCAR-5 ovarian.
For test [7], the system named is TK-10 renal.
Test [8] relates to HCT-15 colon.
Test [9] deals with COLO 205 colon.
The subject of test [10] is MDA-MB-435.

Take `CC(=O)OC1CC2C(C)(C)C(=O)C=C[C@]2(C)C2CCC3(C)C(c4ccoc4)C(=O)[C@H]4O[C@]43[C@]12C` (stereo partly drawn): the TGI in test [1] stood at 67.5 µM; in [2], 32.9 µM; in [3], 32.7 µM; in test [4] it was 36.8 µM; in test [5], 32.1 µM; in test [6], 42.5 µM. The TGI in [7] is above 100 µM; in test [8] it was 37.7 µM; in test [9] it was above 100 µM.

For the molecule `O=C1C[C@@H]2C(COC(=O)c3ccccc3)N(OCc3ccccc3)C[C@@H]2O1` (stereo partly drawn), the TGI in [1], in [2], in [3], in [4], in test [5] and in test [6] was above 100 µM each time. In addition, the TGI in test [7], in [8] and in test [9] was above 100 µM throughout.

As for `CN1c2ccccc2N(C)C2C1N(C)c1ccccc1N2C` (stereo not drawn), the TGI in [1] was 80.2 µM; in [2] it was above 100 µM; in [3] it was 82.2 µM; in test [4], 84.1 µM; in test [5], 76.4 µM; in [6], above 100 µM. Moreover, the TGI in test [7] is above 100 µM; in [9], 29.4 µM.

In the case of `Cc1ccc(S(=O)(=O)NC(=O)NC23CC4CC(CC(F)(C4)C2)C3)cc1`, the TGI in test [1], in [2], in test [3], in [4], in test [5] and in test [6] was above 100 µM in each case. Besides, the TGI in [7] and in [9] was above 100 µM throughout.

In the case of `CC(=O)O[C@H]1CC[C@@]2(C)C(=CC[C@H]3C4=CC=C(C(C)=O)[C@@]4(C)CCC32)C1` (stereo partly drawn), the TGI in test [1], in [2], in test [3], in [4], in test [5] and in test [6] was above 100 µM in each case. Besides, the results for the TGI in test [7], in [8] and in [9] were above 100 µM, above 100 µM and 39.6 µM, respectively.

For the molecule `CC1(C)OC(=O)C=C([O-])O1.CC1(C)OC(=O)C=C([O-])O1.O=S(=O)([O-])c1ccc([O-])c2ncccc12.O=S(=O)([O-])c1ccc([O-])c2ncccc12.[Ti+4]`, the GI50 in test [1] is above 100 µM; in [3] it was above 100 µM; in test [4], above 100 µM; in test [5] it was above 100 µM; in [6], 25.9 µM; in test [7], above 100 µM. The GI50 is 99.7 µM in [8] and above 100 µM in test [9]. Further, the TGI in test [1] was above 100 µM; in test [3], above 100 µM; in [4], above 100 µM; in test [5], above 100 µM; in [6] it was 63.1 µM; in test [7], above 100 µM. The TGI in test [8] and in [9] was above 100 µM each time.

Regarding `Cc1nc2sc(C(=O)Nc3cccc4ccccc34)c(N)c2cc1C(=O)c1ccccc1`, the GI50 is 2.41 µM in test [1]; 1.97 µM in [2]; 2.11 µM in test [3]; 0.15 µM in test [4]; 3.86 µM in [5]; 2.27 µM in test [6]. Further, the GI50 in [7] was above 50 µM; in test [8], 1.41 µM; in [9], 1.65 µM. For the same molecule, the TGI is above 50 µM in test [1]; above 50 µM in test [2]; above 50 µM in test [3]; 1.17 µM in [4]; above 50 µM in test [5]; above 50 µM in test [6]. The TGI in test [7], in [8] and in [9] was above 50 µM each time.

Consider `CCC(=O)C(C)C1=Nc2nnc(CCCCCCCc3nnc4n3C(=O)C(C(C)C(=O)CC)=N4)n2C1=O` (stereo not drawn), for which the TGI in test [1], in [2], in test [3], in [4], in [5] and in test [6] was above 100 µM each time. Moreover, the TGI in [7], in test [8] and in [9] was above 100 µM throughout.

For the molecule `COC1OC(CO)C(O)C(O)C1Br` (stereo not drawn), the TGI in test [1], in test [2], in [4], in [5], in test [6] and in test [7] was above 100 µM throughout. Moreover, the TGI in test [8] and in [9] was above 100 µM in each case.

On to `O=S(=O)(NCC1CCC(CNc2ccc(Cl)cc2)CC1)c1ccc(-c2ccccc2)cc1` (stereo not drawn), for which the GI50 in [1] is above 50 µM; in test [2], 23.5 µM; in [3] it was above 50 µM; in test [6], 29.3 µM; in test [10] it was above 50 µM; in [7] it was 22.8 µM. The GI50 in test [8] and in [9] was above 50 µM in each case. Further, the TGI in [1], in test [2], in test [3], in test [6], in [10] and in test [7] was above 50 µM in each case. In addition, the TGI in test [8] and in [9] was above 50 µM throughout.

Regarding `CN1NC2(CCCCC2)ON=C1c1ccccc1`, the TGI in test [1], in test [2], in test [4], in test [5], in test [6] and in test [7] was above 100 µM in each case. Moreover, the TGI in test [8] and in test [9] was above 100 µM each time.

In the case of `C1CCN(c2nsc(N3CCCCC3)n2)CC1`, the TGI in [1], in [2], in test [3], in test [4], in test [5] and in test [6] was above 100 µM each time. The TGI in test [7] and in [8] was above 100 µM each time.

On to `COc1ccc2c(c1OC)C1=C(C2=O)c2cc3c(cc2CCN1)OCO3`, for which the TGI is above 100 µM in test [3]; above 100 µM in [4]; above 100 µM in test [5]; 97.4 µM in [6]; above 100 µM in test [7]; above 100 µM in [8]. In [9], this molecule registered a TGI above 100 µM.
